Key:
Details in all cases: 72 h
HepG2 [1] = assay: relative viability EC50 (midpoint between 100% and the lowest measured viability); higher = less toxic
Vero E6 [2] = assay: as above
U2OS [3] = assay: as above
Caco-2 [4] = assay: as above
Calu-3 [5] = assay: drug sensitivity score (DSS) for viability; higher = more toxic; extreme values may be limits of the assay
HepG2 [6] = assay: as above
Vero E6 [7] = assay: as above
U2OS [8] = assay: as above
Caco-2 [9] = assay: as above
Calu-3 [10] = assay: cell viability relative to DMSO; higher = less toxic
HepG2 [11] = assay: as above
Vero E6 [12] = assay: as above
U2OS [13] = assay: as above
Caco-2 [14] = assay: as above
Calu-3 [15] = assay: relative viability EC50 (midpoint between 100% and the lowest measured viability); higher = less toxic

Row | Compound | relative viability EC50 (HepG2 [1]) | relative viability EC50 (Vero E6 [2]) | relative viability EC50 (U2OS [3]) | relative viability EC50 (Caco-2 [4]) | drug sensitivity score (Calu-3 [5]) | drug sensitivity score (HepG2 [6]) | drug sensitivity score (Vero E6 [7]) | drug sensitivity score (U2OS [8]) | drug sensitivity score (Caco-2 [9]) | cell viability (Calu-3 [10]; 1 nM) | cell viability (Calu-3 [10]; 10 nM) | cell viability (Calu-3 [10]; 100 nM) | cell viability (Calu-3 [10]; 1000 nM) | cell viability (Calu-3 [10]; 10000 nM) | cell viability (HepG2 [11]; 1 nM) | cell viability (HepG2 [11]; 10 nM) | cell viability (HepG2 [11]; 100 nM) | cell viability (HepG2 [11]; 1000 nM) | cell viability (HepG2 [11]; 10000 nM) | cell viability (Vero E6 [12]; 1 nM) | cell viability (Vero E6 [12]; 10 nM) | cell viability (Vero E6 [12]; 100 nM) | cell viability (Vero E6 [12]; 1000 nM) | cell viability (Vero E6 [12]; 10000 nM) | cell viability (U2OS [13]; 1 nM) | cell viability (U2OS [13]; 10 nM) | cell viability (U2OS [13]; 100 nM) | cell viability (U2OS [13]; 1000 nM) | cell viability (U2OS [13]; 10000 nM) | cell viability (Caco-2 [14]; 1 nM) | cell viability (Caco-2 [14]; 10 nM) | cell viability (Caco-2 [14]; 100 nM) | cell viability (Caco-2 [14]; 1000 nM) | cell viability (Caco-2 [14]; 10000 nM) | relative viability EC50 (Calu-3 [15])
1 | CCCCCCc1ccc(O)cc1O.Nc1c2ccccc2nc2ccccc12 [acrisorcin] | 1.65 µM | 2.49 µM | 2.75 µM | 2.66 µM | 2.5 | 9 | 6.8 | 4.5 | 3.3 | 99.1% | 88.3% | 101% | 96.4% | 60.7% | 103% | 106% | 95.3% | 77.9% | 0.3% | 105% | 102% | 102% | 91.7% | 0.3% | 100% | 101% | 100% | 96.1% | 27.9% | 99.5% | 103% | 96.6% | 96.7% | 47.4% | 
2 | O=C(CN1C(=O)C2(CCCC2)NC[C@H]1c1cc(F)cc(F)c1)Nc1ccc2c(c1)C[C@@]1(C2)C(=O)Nc2ncccc21 [MK-3207] | > 10 µM |  | > 10 µM | > 10 µM | 0 | 0 |  | 0 | 0 | 96.6% | 92.9% | 98.2% | 93.4% | 109% | 91.2% | 106% | 101% | 113% | 101% |  |  |  |  |  | 104% | 101% | 102% | 96.8% | 101% | 99% | 101% | 93% | 106% | 88.8% | > 10 µM
3 | O=C(O)/C=C/c1ccc(-c2ccc(O)c(C34CC5CC(CC(C5)C3)C4)c2)cc1 [adarotene] | 0.285 µM |  | 0.347 µM | 0.306 µM | 9.4 | 13.7 | 8.3 | 15.5 | 12 | 96.9% | 103% | 98.4% | 56.5% | 24.4% | 97.9% | 94.6% | 95.7% | 29.1% | 27.1% | 94% | 104% | 102% | 53.4% | 54.4% | 93.9% | 98.5% | 101% | 14.5% | 11.8% | 87.5% | 96.7% | 96.8% | 38% | 35.3% | 0.854 µM
4 | FC(F)(F)c1ccccc1-n1ccnc1 [TRIM] | > 10 µM |  | > 10 µM | > 10 µM | 0 | 0 |  | 0 | 0 | 98.7% | 99.5% | 92.6% | 97% | 97.2% | 96.7% | 110% | 108% | 103% | 89.5% |  |  |  |  |  | 99.6% | 97.8% | 103% | 95.7% | 103% | 106% | 104% | 98.6% | 93.5% | 108% | > 10 µM
5 | CC(CCc1ccccc1)NC(C)C(O)c1ccc(O)cc1 (stereo not drawn) [buphenine] | > 10 µM |  | > 10 µM | > 10 µM | 0 | 0.1 |  | 0 | 0 | 108% | 106% | 99.3% | 104% | 110% | 98.8% | 100% | 95.9% | 89.7% | 91.3% |  |  |  |  |  | 101% | 100% | 100% | 94.6% | 99.1% | 90.4% | 102% | 92.2% | 92.5% | 90% | > 10 µM
6 | C=C1CCN([C@H](C)[C@](O)(Cn2cncn2)c2ccc(F)cc2F)CC1 [efinaconazole] | > 10 µM |  | > 10 µM | > 10 µM | 0 | 0 |  | 0 | 1.7 | 88% | 99.3% | 94.7% | 96.9% | 91.4% | 102% | 98.3% | 92.4% | 95.9% | 91.5% |  |  |  |  |  | 99.2% | 101% | 96.2% | 103% | 96.1% | 96.9% | 98.3% | 100% | 91.8% | 78.3% | > 10 µM
7 | Cc1c(OCC(F)(F)F)ccnc1C[S+]([O-])c1nc2ccccc2[nH]1 (stereo not drawn) [lansoprazole] | > 10 µM |  | > 10 µM | > 10 µM | 0 | 0 |  | 0 | 0 | 93.1% | 107% | 95.1% | 107% | 92.3% | 104% | 96.8% | 96.1% | 92.1% | 96.5% |  |  |  |  |  | 94.8% | 101% | 93% | 93.8% | 93.8% | 99.7% | 94.3% | 96.6% | 97% | 92.6% | > 10 µM
